Tests used:
[1] = test system: NIH-3T3 non-cancerous cells; experiment: Neutral red uptake (NRU) toxicity assay, NIH-3T3; assay type: cell-based; conditions: non-cancerous mouse fibroblasts
Description: Melanoma human cancer cell line (A375 and MDA-MB-435) were obtained from ATCC. The NIH-3T3 cell line was generously gifted by the ANSM (French National Agency for Medicines and Health Products Safety, Vendargues, France). Cells were cultured in Dulbecco’s Modified Eagle Medium (DMEM, Sigma Aldrich) supplemented with 10% heat-inactivated foetal calf serum (FCS, Gibco), 2 mM glutamax (Gibco), 100 IU/mL penicillin G sodium (Sigma Aldrich), 100 lU/mL streptomycin sulphate (Sigma Aldrich). The cells were allowed to grow at 37 °C in a fully humidified atmosphere containing 5% CO2.
A viability assay was used to evaluate the cytotoxic activity on A375 and MDA-MB-435 melanoma cells as previously described. According to OCDE/ICCVAM guidance n°129, NRU assay was also used to evaluate the toxicity on the non-cancerous NIH-3T3 cells. Cells were seeded at a final concentration of 2000 cells/well (A375), 3000 cells/well (NIH-3T3) or 7500 cells/well (MDA-MB-435) in 96-well microtiter plates for 24 h. Then, cells were exposed to two negative controls (1% DMSO in culture medium (vehicle) and culture medium alone), or to different compounds freshly dissolved in DMSO, in a range of concentration from 0.01 to 40 µM (six wells per concentration). After 72 h of incubation, cells were stained with new medium containing 50 µg/mL of neutral red (3-amino-7-dimethylamino-2-methylphenazine hydrochloride, Sigma Aldrich) at 37 °C for 2 h. The neutral red medium solution was then removed and the wells were washed with PBS. Finally, 100 µL of solution containing ethanol, acetic acid and water (50/1/49 v/v/v respectively) were added into the wells and the absorbance was measured at 540 nm using the microplate reader 352 Multiscan MS (Labsystems). Cell survival rates were normalised to the absorbance values of untreated control cells. IC50 was obtained using a logistic regression model on Graphpad Prism 5.0 software. Results are given as the mean ± standard deviation (SD) of three independent experiments. Statistical analysis was performed using the Student’s t-test.
Then, all active compounds on the two melanoma cell lines (IC50 < 40 µM) were assessed on the NIH-3T3 mouse fibroblast cell line, in order to check the toxicity of our compounds on non-cancerous cells. […] As a possible modification of the mechanism of action was hypothesised for these two derivatives (see above), this phenomenon could probably be also correlated with the cytotoxicity observed on the NIH-3T3 cell line.

[2] = test system: NCI-60 cancer cell line panel; experiment: NCI-60 SRB assay, whole panel; assay type: cell-based, human; conditions: 10 µM, 48 h
Description: (§1) Primary anticancer assay was performed on a panel of 60 human cancer cell lines derived from nine neoplastic diseases, in accordance with the protocol of the Drug Evaluation Branch, National Cancer Institute, Bethesda, Maryland, USA[22]. Cells were incubated with tested compounds at 10 µM for 48 h. The growth percentage was evaluated spectrophotometrically using a protein binding dye, SRB. Results for each tested compound were reported as the percent of growth of treated cells when compared to untreated control cells.
(§2) To better compare the activity profile of these two series of compounds, compounds 5 and 8 were selected and then evaluated towards a panel of sixty cancer cell lines corresponding to nine different cancer types, i.e. leukaemia, melanoma, as well as lung, colon, central nervous system, ovarian, renal, prostate and breast cancers (NCI evaluation). Indeed, it is now well established that the growth inhibitory patterns of anticancer drugs against the NCI-60 cell line panel correlated well with their modes of action. For example, compounds that bind to tubulin have similar growth inhibition patterns regardless of which site on tubulin they bind[30]. […] Compounds were tested using the sulforhodamine B (SRB) assay that provides a direct cell density index. The amount of dye incorporated by the cells increases with the increase of the total protein biomass. Cells were incubated for 48 h with compounds at 10 µM concentration, then cell growth was evaluated spectrophotometrically and presented as the percent of untreated control cells. Values of the most sensitive cell lines were compared to those obtained with JMV5038 (Figure 4, for all data see SI).

[3] = test system: HOP-62; experiment: NCI-60 SRB assay, HOP-62 (NSCLC); assay type: cell-based, human; conditions: 10 µM, 48 h; for G%: growth vs untreated control;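 for Mean G% - G%: mean growth across the NCI-60 panel minus this line's growth with positive meaning more sensitive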
Description: as §1, §2

[4] = test system: NCI-H226; experiment: NCI-60 SRB assay, NCI-H226 (NSCLC); assay type: cell-based, human; conditions: 10 µM, 48 h; for G%: growth vs untreated control
Description: as §1, §2

[5] = test system: NCI-H322M; experiment: NCI-60 SRB assay, NCI-H322M (NSCLC); assay type: cell-based, human; conditions: 10 µM, 48 h; for G%: growth vs untreated control
Description: as §1, §2

[6] = test system: NCI-H522; experiment: NCI-60 SRB assay, NCI-H522 (NSCLC); assay type: cell-based, human; conditions: 10 µM, 48 h; for G%: growth vs untreated control
Description: as §1, §2

[7] = test system: COLO 205; experiment: NCI-60 SRB assay, COLO 205 (Colon Cancer); assay type: cell-based, human; conditions: 10 µM, 48 h; for G%: growth vs untreated control
Description: as §1, §2

[8] = test system: HT29; experiment: NCI-60 SRB assay, HT29 (Colon Cancer); assay type: cell-based, human; conditions: 10 µM, 48 h; for G%: growth vs untreated control;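 for Mean G% - G%: mean growth across the NCI-60 panel minus this line's growth with positive meaning more sensitive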
Description: as §1, §2

[9] = test system: SF-295; experiment: NCI-60 SRB assay, SF-295 (CNS Cancer); assay type: cell-based, human; conditions: 10 µM, 48 h; for G%: growth vs untreated control
Description: as §1, §2

[10] = test system: SF-539; experiment: NCI-60 SRB assay, SF-539 (CNS Cancer); assay type: cell-based, human; conditions: 10 µM, 48 h; for G%: growth vs untreated control
Description: as §1, §2

[11] = test system: SNB-19; experiment: NCI-60 SRB assay, SNB-19 (CNS Cancer); assay type: cell-based, human; conditions: 10 µM, 48 h; for G%: growth vs untreated control
Description: as §1, §2

[12] = test system: LOX IMVI; experiment: NCI-60 SRB assay, LOX IMVI (Melanoma); assay type: cell-based, human; conditions: 10 µM, 48 h; for G%: growth vs untreated control
Description: as §1, §2

[13] = test system: MALME-3M; experiment: NCI-60 SRB assay, MALME-3M (Melanoma); assay type: cell-based, human; conditions: 10 µM, 48 h; for G%: growth vs untreated control
Description: as §1, §2

[14] = test system: SK-MEL-2; experiment: NCI-60 SRB assay, SK-MEL-2 (Melanoma); assay type: cell-based, human; conditions: 10 µM, 48 h; for G%: growth vs untreated control
Description: as §1, §2

[15] = test system: SK-MEL-28; experiment: NCI-60 SRB assay, SK-MEL-28 (Melanoma); assay type: cell-based, human; conditions: 10 µM, 48 h; for G%: growth vs untreated control
Description: as §1, §2

[16] = test system: UACC-62; experiment: NCI-60 SRB assay, UACC-62 (Melanoma); assay type: cell-based, human; conditions: 10 µM, 48 h; for G%: growth vs untreated control
Description: as §1, §2

[17] = test system: IGROV1; experiment: NCI-60 SRB assay, IGROV1 (Ovarian Cancer); assay type: cell-based, human; conditions: 10 µM, 48 h; for G%: growth vs untreated control
Description: as §1, §2

[18] = test system: OVCAR-3; experiment: NCI-60 SRB assay, OVCAR-3 (Ovarian Cancer); assay type: cell-based, human; conditions: 10 µM, 48 h; for G%: growth vs untreated control;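 for Mean G% - G%: mean growth across the NCI-60 panel minus this line's growth with positive meaning more sensitive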
Description: as §1, §2

[19] = test system: NCI/ADR-RES; experiment: NCI-60 SRB assay, NCI/ADR-RES (Ovarian Cancer); assay type: cell-based, human; conditions: 10 µM, 48 h; for G%: growth vs untreated control;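 for Mean G% - G%: mean growth across the NCI-60 panel minus this line's growth with positive meaning more sensitive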
Description: as §1, §2

[20] = test system: A498; experiment: NCI-60 SRB assay, A498 (Renal Cancer); assay type: cell-based, human; conditions: 10 µM, 48 h; for G%: growth vs untreated control
Description: as §1, §2

[21] = test system: SN12C; experiment: NCI-60 SRB assay, SN12C (Renal Cancer); assay type: cell-based, human; conditions: 10 µM, 48 h; for G%: growth vs untreated control
Description: as §1, §2

[22] = test system: PC-3; experiment: NCI-60 SRB assay, PC-3 (Prostate Cancer); assay type: cell-based, human; conditions: 10 µM, 48 h; for G%: growth vs untreated control
Description: as §1, §2

For `[N-]=[N+]=NCCCC[C@@H]1NC(c2ccc(Br)cc2)=Nc2nc3ccccn3c2C1=O` [Compound 16, (4S)-4-(4-azidobutyl)-2-(4-bromophenyl)-3,4-dihydro-5H-pyrido[1’,2’:1,2]imidazo[4,5-d][1,3]diazepin-5-one], the IC50 ([1]; 72 h) was 9.9 ± 0.51 µM, the IC50 ([1]; Mus musculus, NIH3T3, 72 h) was ~10 µM and the “Mean G% (mean growth over the panel)” value [2] was 91.77%. The “Mean G% - G%” value [3] was 14,42%, the G% [3] was 77,35% and the “Mean G% - G%” value [4] was 3,58%. The G% [4] was 88,19%, the “Mean G% - G%” value [5] was 0,41% and the G% [5] was 91,36%. For the same molecule, the “Mean G% - G%” value [6] was 7,01%, the G% [6] was 84,76% and the “Mean G% - G%” value [7] was -15,42%. For the same molecule, the G% [7] was 107,19%, the “Mean G% - G%” value [8] was -14,13% and the G% [8] was 105,90%. The “Mean G% - G%” value [9] was -4,02%, the G% [9] was 95,79% and the “Mean G% - G%” value [10] was -6,24%. The G% [10] was 98,01%, the “Mean G% - G%” value [11] was -3,35% and the G% [11] was 95,12%. The “Mean G% - G%” value [12] was 5,56%, the G% [12] was 86,21% and the “Mean G% - G%” value [13] was -22,73%. For the same molecule, the G% [13] was 114,50%, the “Mean G% - G%” value [14] was -16,61% and the G% [14] was 108,38%. For the same molecule, the “Mean G% - G%” value [15] was -18,13%, the G% [15] was 109,90% and the “Mean G% - G%” value [16] was 11,94%. The G% [16] was 79,83%, the “Mean G% - G%” value [17] was 70,16% and the G% [17] was 21,61%. The “Mean G% - G%” value [18] was -11,51%, the G% [18] was 103,28% and the “Mean G% - G%” value [19] was -9,49%. The G% [19] was 101,26%, the “Mean G% - G%” value [20] was 8,90% and the G% [20] was 82,87%. For the same molecule, the “Mean G% - G%” value [21] was -4,64%, the G% [21] was 96,41% and the “Mean G% - G%” value [22] was -10,51%. The G% [22] was 102,28%.

`C[C@@H]1NC(c2ccc(Br)cc2)=Nc2nc3ccccn3c2C1=O` [JMV5038] was tested, and the IC50 ([1]; Mus musculus, NIH3T3, 72 h) was > 100 µM, the “Mean G% (mean growth over the panel)” value [2] was 54,24% and the “Mean G% - G%” value [3] was -1,60%. For the same molecule, the G% [3] was 55,84%, the “Mean G% - G%” value [4] was -14,04% and the G% [4] was 68,28%. The “Mean G% - G%” value [5] was -19,71%, the G% [5] was 73,95% and the “Mean G% - G%” value [6] was 19,43%. For the same molecule, the G% [6] was 34,81%, the “Mean G% - G%” value [7] was 27,91% and the G% [7] was 26,33%. For the same molecule, the “Mean G% - G%” value [8] was 36,72%, the G% [8] was 17,52% and the “Mean G% - G%” value [9] was 13,36%. For the same molecule, the G% [9] was 40,88%, the “Mean G% - G%” value [10] was -20,40% and the G% [10] was 74,64%. For the same molecule, the “Mean G% - G%” value [11] was -28,38%, the G% [11] was 82,62% and the “Mean G% - G%” value [12] was 1,80%. For the same molecule, the G% [12] was 52,44%, the “Mean G% - G%” value [13] was 2,49% and the G% [13] was 51,75%. For the same molecule, the “Mean G% - G%” value [14] was 6,87%, the G% [14] was 47,37% and the “Mean G% - G%” value [15] was -11,91%. The G% [15] was 66,15%, the “Mean G% - G%” value [16] was 5,01% and the G% [16] was 49,23%. The “Mean G% - G%” value [17] was 11,16%, the G% [17] was 43,08% and the “Mean G% - G%” value [18] was 36,95%. The G% [18] was 17,29%, the “Mean G% - G%” value [19] was 14,87% and the G% [19] was 39,37%. For the same molecule, the “Mean G% - G%” value [20] was -15,64%, the G% [20] was 69,88% and the “Mean G% - G%” value [21] was -37,53%. For the same molecule, the G% [21] was 91,77%, the “Mean G% - G%” value [22] was -8,96% and the G% [22] was 63,20%.

Reference: paper PMC7170309, “Imidazopyridine-fused [1,3]diazepinones: modulations of positions 2 to 4 and their impacts on the anti-melanoma activity” (Journal of Enzyme Inhibition and Medicinal Chemistry, 2020)
